From US20260364101A1, “OLEUROPEIN IN THE MANAGEMENT OF CANCER” (FUNDACIÓN MIGUEL SERVET, priority 2023, published 2026) come the findings set out here.

The test system of the experiment is TAMs. The experiment in a line: quantitative proteomics and Ingenuity Pathway Analysis of TAM. It counts as cell-based, mouse. How it is done: Immunosuppressive myeloid cell subsets resembling tumor-infiltrating subsets (g-MDSCs, m-MDSCs and TAMs) were differentiated from mouse bone marrow following published procedures using conditioning medium produced by LLC tumor cells stably expressing GMCSF and MCSF cells. g- and m-MDSCs were purified using the myeloid-derived suppressor cell isolation kit (Miltenyi Biotec, Bergisch, Germany) according to manufacturer's recommendations. MDSCs and TAMs were seeded with 500 nM BML-275 or 50 μM oleuropein and incubated for seven days.
A unique proteomic experiment was carried out with five biological replicates per sample (m-MDSC, g-MDSC and TAM). Cells were homogenized in a lysis buffer containing 7 M urea, 2 M thiourea 50 mM DTT. The homogenates were spun down at 14000 g for 1 h at 15 °C. Before proteomic analysis, protein extracts were diluted with Laemmli sample buffer in 100 μL and loaded into a 0.75 mm thick polyacrylamide gel with a 4% stacking gel casted over a 12.5% resolving gel. The run was stopped as soon as the front entered 3 mm into the resolving gel so that the whole proteome became concentrated in the stacking/resolving gel interface. Bands were stained with Coomassie Brilliant Blue, excised from the gel and protein enzymatic cleavage was carried out with trypsin (Promega; 1:20, w/w) at 37 °C for 16 h as previously described. Purification and concentration of peptides was performed using C18 Zip Tip Solid Phase Extraction (Millipore).
Peptide mixtures were separated by reverse phase chromatography using an UltiMate 3000 UHLPC System (Thermo Scientific) fitted with an Aurora packed emitter column (lonopticks, 25 cm×75 μm ID, 1.6 μm C18). Samples were first loaded for desalting and concentration into an Acclaim PepMap column (ThermoFisher, 0.5 cm×300 μm ID, 5 μm C18) packed with the same chemistry as the separating column. Mobile phases were 100% water 0.1% formic acid (FA) (buffer A) and 100% Acetonitrile 0.1% FA (buffer B). Column gradient was developed in a 120 min two step gradient from 5% B to 20% B in 90 min and 20% B to 32% B in 30 min. Column was equilibrated in 95% B for 10 min and 5% B for 20 min. During the whole process, the precolumn was in line with the column and the flow maintained all along the gradient at 300 nl/min. The column temperature was maintained at 40 °C using an integrated column oven (PRSO-V2, Sonation, Biberach, Germany) and interfaced online with the Orbitrap Exploris 480 MS. Spray voltage were set to 2 kV, funnel RF level at 40, and heated capillary temperature at 300 °C. For DDA experiments full MS resolutions were set to […] at m/z 200 and full MS AGC target was set to Standard with an IT mode Auto. Mass range was set to 375-1500. AGC target value for fragment spectra was set to Standard with a resolution of 15,000 and 3 seconds for cycle time. The intensity threshold was kept at 8E3. Isolation width was set at 1.4 m/z. Normalized collision energy was set at 30%. All data were acquired in centroid mode using positive polarity and peptide match was set to off, and isotope exclusion was on.
Raw files were processed with MaxQuant v1.6.17.0 using the integrated Andromeda Search engine. All data were searched against a target/decoy version of the mouse Uniprot Reference Proteome with March 2021 release. First search peptide tolerance was set to 20 ppm, main search peptide tolerance was set to 4.5 ppm. Fragment mass tolerance was set to 20 ppm. Trypsin was specified as enzyme, […] carbamidomethylation of cysteine was specified as fixed modification and peptide N-terminal acetylation, oxidation of methionine, deamidation of asparagine and glutamine and pyro-glutamate formation from glutamine and glutamate were considered variable modifications with a total of two variable modifications per peptide. […]

Consider `C/C=C1/[C@H](O[C@@H]2O[C@H](CO)[C@@H](O)[C@H](O)[C@H]2O)OC=C(C(=O)OC)[C@H]1CC(=O)OCCc1ccc(O)c(O)c1` [oleuropein], for which the “activated macrophages and pro-inflammatory activities of macrophages” value is “enhances”. Further, where the note is “IPA”, the BAG2 signalling entry was “downregulated”, the EIF2 signalling entry is “upregulated”, the Flt3 signalling result is “upregulated” and the “For-mediated (Fcr-mediated) phagocytosis signalling” value is given as “upregulation”. For the setting “IPA”, the Hif1a signalling entry is “downregulated”, the fmlp signalling entry was “upregulated”, the immunosuppressive markers entry is given as “downregulation” and the mTOR signalling result was “downregulated”. For the same compound, the “For-mediated (Fcr-mediated) phagocytosis signalling” value (IPA, listed as Oleuropein) was “upregulated”.
